The source of these data is paper PMC11768289 (Pharmaceuticals, 2025).

Like-named read-outs stand apart in the source and are kept apart here.

As a reminder, the CC50 is the concentration giving 50% cytotoxicity. A lower CC50 goes with greater toxicity to the cells. One may read the EC50 as the concentration needed to bring the measured effect to its halfway point.

In series [1] the test system is SARS-CoV-2 isolate USA-WA1/2020. In words: microbe, parasite or virus in culture. In kind it is cell-based. The settings on record: for inhibition at 2.1 µM: Conc. 2.1 µM (0.4 × CC50); for EC50: read-out: SARS-CoV-2 EC50.
Series [2] deals with A549/ACE2/TMPRSS2 cells. As to the kind of experiment: Cell viability assay (MTS) in non-infected cells.
The nature of series [3]: Cell viability assay (MTS) in non-infected cells. The settings on record: human.
For series [4], the target named is T1, p97 (Homo sapiens, UniProt P55072).
T1 construct: made in house
T1 sequence (P55072 whole entry): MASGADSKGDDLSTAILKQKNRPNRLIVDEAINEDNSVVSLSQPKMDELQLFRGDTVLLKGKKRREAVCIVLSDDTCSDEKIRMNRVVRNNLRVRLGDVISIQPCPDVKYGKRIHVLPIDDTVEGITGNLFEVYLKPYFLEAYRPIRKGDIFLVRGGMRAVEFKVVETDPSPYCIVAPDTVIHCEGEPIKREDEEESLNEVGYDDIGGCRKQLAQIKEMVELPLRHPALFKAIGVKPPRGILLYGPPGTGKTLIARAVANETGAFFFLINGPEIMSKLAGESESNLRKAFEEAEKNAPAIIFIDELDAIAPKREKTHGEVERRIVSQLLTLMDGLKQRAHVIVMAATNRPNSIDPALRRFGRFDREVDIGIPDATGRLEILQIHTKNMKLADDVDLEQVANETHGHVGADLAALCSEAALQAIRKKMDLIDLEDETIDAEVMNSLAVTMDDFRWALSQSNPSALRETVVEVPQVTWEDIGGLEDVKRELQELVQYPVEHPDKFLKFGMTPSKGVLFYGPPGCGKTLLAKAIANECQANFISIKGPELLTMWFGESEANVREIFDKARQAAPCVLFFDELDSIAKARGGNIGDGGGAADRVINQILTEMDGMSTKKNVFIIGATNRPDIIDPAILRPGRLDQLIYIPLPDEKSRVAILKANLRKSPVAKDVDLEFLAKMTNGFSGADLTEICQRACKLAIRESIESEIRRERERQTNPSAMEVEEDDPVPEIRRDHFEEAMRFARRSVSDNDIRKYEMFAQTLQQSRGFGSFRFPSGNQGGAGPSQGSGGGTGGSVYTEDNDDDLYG
In words: p97 biochemical assay (ATPase activity, PNP/MesG coupled). The settings on record: 0.2 mM ATP, 5 min preincubation; for inhibition at 0.1 µM: read-out: p97 Inhib. (%) at 0.10 µM, compound 0.10 µM; for inhibition at 1 µM: read-out: p97 Inhib. (%) at 1.0 µM, compound 1.0 µM; for p97 Inhib. (%) at 0.10 µM: compound 0.10 µM.

The mark [5] stands for this setting: Severe acute respiratory syndrome coronavirus 2, A549-ACE2, 48 h, read-out: SARS-CoV-2 Inhib. (%).
Setting [6] is: tested at 0.4 × CC50, or at 50 µM if CC50 higher than 100 µM, A549/ACE2/TMPRSS2.
[7] abbreviates: Severe acute respiratory syndrome coronavirus 2, A549/ACE2/TMPRSS2, MOI 0.01, 48 h, mean ± standard error, read-out: SARS-CoV-2 Inhib. (%).
[8] abbreviates: Severe acute respiratory syndrome coronavirus 2, A549-ACE2, 48 h.
Setting [9] is: Severe acute respiratory syndrome coronavirus 2, Conc. 50 µM, A549/ACE2/TMPRSS2, MOI 0.01, 48 h, mean ± standard error, read-out: SARS-CoV-2 Inhib. (%).

Turning to `Cc1cc2c(C(N)=O)cccc2n1-c1nc2c(c(NCc3ccccc3)n1)COCC2` [CB-5083, reference compound], the “anti-SARS-CoV-2 activity (in words)” value in series [1] is “minimal inhibition”. For the same compound, the inhibition at 0.38 µM in series [1] (setting [5]) turned out to be 6 ± 4%. Further, the CC50 result in series [2] (non-infected A549/ACE2/TMPRSS2 cells, MTS, 48 h) is reported as “highly toxic”. This compound yielded a CC50 at 48 h in series [3] of 0.95 µM.

Turning to `CC#CC(=O)Nc1cccc2c1cc(C)n2-c1nc2c(c(NCc3ccccc3)n1)CCCC2` [Compound 6a, reference compound], the inhibition at 0.22 µM in series [1] (Severe acute respiratory syndrome coronavirus 2, Conc. 0.22 µM (0.4 × CC50), A549/ACE2/TMPRSS2, MOI 0.01, 48 h, mean ± standard error, read-out: SARS-CoV-2 Inhib. (%)) worked out at 6 ± 3%. In addition, in series [1] (setting [6]), the “anti-SARS-CoV-2 activity (in words)” value is “minimal inhibition”. Further, in series [4], the inhibition at 0.1 µM was determined as 57% and the inhibition at 1 µM came out at 97%.

Turning to `CC#CC(=O)Nc1cccc2c1cc(C)n2-c1nc2c(c(NCc3ccccc3)n1)COCC2` [Compound 6b, reference compound], in series [1] (Severe acute respiratory syndrome coronavirus 2, Conc. 0.46 µM (0.4 × CC50), A549/ACE2/TMPRSS2, MOI 0.01, 48 h, mean ± standard error, read-out: SARS-CoV-2 Inhib. (%)), the inhibition at 0.46 µM worked out at 5%. The “anti-SARS-CoV-2 activity (in words)” value in series [1] (setting [6]) is “minimal inhibition”. For the same compound, in series [4], the inhibition at 0.1 µM stood at 38% and the inhibition at 1 µM is 95%.

`CC#CC(=O)Nc1cccc2c1cc(C)n2-c1nc(NCc2ccccc2)cc(N2CCOCC2)n1` [Compound 8a, N-(1-(4-(Benzylamino)-6-morpholinopyrimidin-2-yl)-2-methyl-1H-indol-4-yl)but-2-ynamide]: the inhibition at 0.96 µM in series [1] (setting [5]) was 3 ± 5%. For the same compound, the CC50 at 48 h in series [3] was determined as 2.4 µM. In series [4], the inhibition at 0.1 µM is about 90% and the inhibition at 1 µM came out at 97%.

As for `C=CC(=O)Nc1cccc2c1cc(C)n2-c1nc(NCc2ccccc2)cc(N2CCOCC2)n1` [Compound 8b, N-(1-(4-(Benzylamino)-6-morpholinopyrimidin-2-yl)-2-methyl-1H-indol-4-yl)acrylamide], in series [1] (setting [7]), the inhibition at 2.1 µM is 5 ± 8%. The CC50 at 48 h in series [3] was determined as 5.2 µM. Also, in series [4], the inhibition at 0.1 µM was determined as 77% and the inhibition at 1 µM amounted to 96%.

`C=CS(=O)(=O)Nc1cccc2c1cc(C)n2-c1nc(NCc2ccccc2)cc(N2CCOCC2)n1` [Compound 8c, N-(1-(4-(Benzylamino)-6-morpholinopyrimidin-2-yl)-2-methyl-1H-indol-4-yl)ethenesulfonamide]: the inhibition at 2.1 µM in series [1] (setting [7]) stood at 8 ± 3%. Further, the 50% cytotoxic concentration (CC50) at 48 h in series [3] came out at 5.2 µM. Further, in series [4], the inhibition at 0.1 µM was 65% and the inhibition at 1 µM worked out at 89%.

With `CC#CC(=O)Nc1cccc2c1cc(C)n2-c1nc(NCc2ccccc2)cc(N2CCCCC2)n1` [Compound 9a, N-(1-(4-(Benzylamino)-6-(piperidin-1-yl)pyrimidin-2-yl)-2-methyl-1H-indol-4-yl)but-2-ynamide], in series [1] (setting [8]), the EC50 was 6.7 ± 0.8 µM. Besides, the inhibition at 30 µM in series [1] (setting [5]) is 98%. Also, the “anti-SARS-CoV-2 activity (in words)” value in series [1] (setting [6]) is on record as “excellent antiviral activity”. The same compound yielded a CC50 at 48 h in series [3] of 76 µM. Besides, in series [4], the “p97 Inhib. (%) at 0.10 µM” value was determined as 94%, the inhibition at 0.1 µM was over 90% and the inhibition at 1 µM was 100%.

Turning to `C=CC(=O)Nc1cccc2c1cc(C)n2-c1nc(NCc2ccccc2)cc(N2CCCCC2)n1` [Compound 9b, N-(1-(4-(Benzylamino)-6-(piperidin-1-yl)pyrimidin-2-yl)-2-methyl-1H-indol-4-yl)acrylamide], the inhibition at 50 µM in series [1] (setting [9]) worked out at 28 ± 3%. In addition, in series [1] (setting [6]), the “anti-SARS-CoV-2 activity (in words)” value is listed as “markedly reduced”. In series [4], the inhibition at 0.1 µM stood at 64% and the inhibition at 1 µM stood at 91%.

`C=CS(=O)(=O)Nc1cccc2c1cc(C)n2-c1nc(NCc2ccccc2)cc(N2CCCCC2)n1` [Compound 9c, N-(1-(4-(Benzylamino)-6-(piperidin-1-yl)pyrimidin-2-yl)-2-methyl-1H-indol-4-yl)ethenesulfonamide]: the inhibition at 5.9 µM in series [1] (setting [5]) was 0%. Moreover, in series [1] (setting [6]), the “anti-SARS-CoV-2 activity (in words)” value is recorded as “marginal inhibition”. Moreover, the CC50 at 48 h in series [3] was determined as 15 µM. Besides, in series [4], the inhibition at 0.1 µM stood at 73% and the inhibition at 1 µM is 95%.

Turning to `CC#CC(=O)Nc1cccc2c1cc(C)n2-c1nc(NCc2ccccc2)cc(C2CCCCC2)n1` [Compound 10a, N-(1-(4-(Benzylamino)-6-cyclohexylpyrimidin-2-yl)-2-methyl-1H-indol-4-yl)but-2-ynamide], in series [1] (setting [8]), the EC50 was determined as 6.8 ± 0.6 µM. For the same compound, in series [1] (setting [5]), the inhibition at 50 µM was found to be 96 ± 1%. Also, in series [1] (setting [6]), the “anti-SARS-CoV-2 activity (in words)” value is listed as “excellent antiviral activity”. This compound also registered a CC50 at 48 h in series [3] of over 100 µM. For the same compound, in series [4], the inhibition at 0.1 µM was about 90% and the inhibition at 1 µM came out at 100%.

In the case of `C=CC(=O)Nc1cccc2c1cc(C)n2-c1nc(NCc2ccccc2)cc(C2CCCCC2)n1` [Compound 10b, N-(1-(4-(Benzylamino)-6-cyclohexylpyrimidin-2-yl)-2-methyl-1H-indol-4-yl)acrylamide], the inhibition at 50 µM in series [1] (setting [9]) was 30 ± 9%. Moreover, the “anti-SARS-CoV-2 activity (in words)” value in series [1] (setting [6]) is given as “markedly reduced”. In series [3], the CC50 at 48 h is over 100 µM. In series [4], the inhibition at 0.1 µM came to 70% and the inhibition at 1 µM is 96%.

Regarding `C=CS(=O)(=O)Nc1cccc2c1cc(C)n2-c1nc(NCc2ccccc2)cc(C2CCCCC2)n1` [Compound 10c, N-(1-(4-(Benzylamino)-6-cyclohexylpyrimidin-2-yl)-2-methyl-1H-indol-4-yl)ethenesulfonamide], the inhibition at 4.8 µM in series [1] (Severe acute respiratory syndrome coronavirus 2, Conc. 4.8 µM (0.4 × CC50), A549/ACE2/TMPRSS2, MOI 0.01, 48 h, mean ± standard error, read-out: SARS-CoV-2 Inhib. (%)) came out at 7 ± 3%. The “anti-SARS-CoV-2 activity (in words)” value in series [1] (setting [6]) is “marginal inhibition”. In series [3], this compound returned a CC50 at 48 h of 12 µM. For the same compound, in series [4], the inhibition at 0.1 µM was 68% and the inhibition at 1 µM was found to be 95%.

Take `Cc1cc2c(C(N)=O)cccc2n1-c1nc(NCc2ccccc2)cc(C2CCCCC2)n1` [Compound 12]: the “p97 Inhib. (%) at 1.0 µM” value in series [4] (compound 1.0 µM) is recorded as “minimal inhibition”. In addition, in series [4], the inhibition at 0.1 µM worked out at 18% and the inhibition at 1 µM was found to be 21%.

For `Cc1cc(OCc2nnc(SC3CCCC3)n2-c2cccnc2)ccc1-c1ccc(S(C)(=O)=O)cc1` [NMS-873, reference compound], in series [1] (Severe acute respiratory syndrome coronavirus 2, Conc. 1.6 µM (0.4 × CC50), A549/ACE2/TMPRSS2, MOI 0.01, 48 h, mean ± standard error, read-out: SARS-CoV-2 Inhib. (%)), the inhibition at 1.6 µM was determined as 0%. For the same compound, in series [1] (setting [6]), the “anti-SARS-CoV-2 activity (in words)” value was “minimal inhibition”. Moreover, the “fold less toxic than CB-5083” value in series [2] (A549/ACE2/TMPRSS2 cells, relative to CB-5083) was “approximately 4 fold”. This compound registered a CC50 at 48 h in series [3] of 4.1 µM. For the same compound, in series [4], the “p97 Inhib. (%) at 0.10 µM” value is recorded as “poor inhibition”, the inhibition at 0.1 µM stood at 5% and the inhibition at 1 µM is 84%.

Consider `CCC(CC)COC(=O)[C@H](C)N[P@](=O)(OC[C@H]1O[C@@](C#N)(c2ccc3c(N)ncnn23)[C@H](O)[C@@H]1O)Oc1ccccc1` [remdesivir, reference compound], for which the EC50 in series [1] (setting [8]) amounted to 0.044 µM. For the same compound, in series [1] (setting [5]), the inhibition at 2 µM was determined as 100%. This compound gave a CC50 at 48 h in series [3] of over 10 µM.
